Results: patent publication US20100184186A1, “NOVEL RIGIDOPORUS MICROPORUS LACCASE” (Academia Sinica, priority 2009, published 2010)

Assays:
[1] = tested on: Lcc35; assay: Inhibitor effects on Lcc35 laccase activity; assay type: biochemical, R. microporus BCRC 35318; details: ABTS substrate; for Relative activity (%) of Lcc35: pre-incubation pH 5.0, 30° C., 10 min
Description: The inhibitory effects of NaN3, ethylenediaminetetraacetic acid (EDTA), dithiothreitol (DTT), and L-Cysteine on Lcc35 were examined as follows. Lcc35 was pre-incubated in a solution (pH 5.0) containing one of the test compounds at 30° C. for 10 min. The laccase activity was then examined using ABTS as the substrate.

[2] = tested on: R. microporus BCRC 35318; assay: Effects of inducers on laccase production in R. microporus; assay type: cell-based; details: for Yield of laccase production: inducer 1 mM in basal medium
Description: (§1) To isolate the laccase from R. microporus BCRC 35318, eight-day-old mycelial disks (8 mm in diameter) collected from the PDA plate mentioned above were inoculated into a basal medium containing (per liter) 10 g glucose, 0.22 g ammonium tartrate, 0.9 g K2HPO4, 0.1 g KH2PO4, 0.05 g MgSO4.7H2O, 0.5 g CaCl2, 0.01 g Thiamine HCl, and 10 ml solution (0.08 g CuSO4.5H2O, 0.07 g MnSO4.4H2O, 4.3 g ZnSO4.7H2O and 0.05 g FeSO4.7H2O per liter). The pH of the medium was adjusted to 5.5. After being cultured for 10 days at 30° C. in a rotary shaker with a speed setting of 125 rpm, the supernatant of the fungal culture thus obtained was collected and passed through a […] filter (Nalgene) to remove fungal cells. The filtrate was mixed with 100% ammonium sulfate for protein precipitation. The precipitated proteins were dissolved in 40 ml of a 10 mM sodium acetate buffer (pH 6.0) and the resultant solution was dialyzed against the same acetate buffer overnight to remove co-precipitated ammonium sulfate and then concentrated to 4 ml by ultracentrifugal filteration with a molecular cutoff of 10 kDa (Amicon).
R. microporus BCRC 35318 cells were cultured in the basal medium described in Example 1 above, which was supplemented with veratryl alcohol, 4-hydroxybenxoic acid, ferulic acid, or rice straw powder. Lcc35 were isolated from the culture supernatants following the method also described above and its activity was determined.

[3] = tested on: Rigidoporus microporus BCRC 35318 laccase Lcc35, native (wild type), mature form SEQ ID NO:1; assay: Kinetic constants of Lcc35 for digesting ABTS and SGZ (initial reaction rates at various substrate concentrations); assay type: biochemical, R. microporus BCRC 35318
Description: The pH of the medium was adjusted to 5.5. After being cultured for 10 days at 30° C. in a rotary shaker with a speed setting of 125 rpm, the supernatant of the fungal culture thus obtained was collected and passed through a […] filter (Nalgene) to remove fungal cells. […] The precipitated proteins were dissolved in 40 ml of a 10 mM sodium acetate buffer (pH 6.0) and the resultant solution was dialyzed against the same acetate buffer overnight to remove co-precipitated ammonium sulfate and then concentrated to 4 ml by ultracentrifugal filteration with a molecular cutoff of 10 kDa (Amicon). Next, the laccase activities of Lcc35 under various pH conditions were determined, following the method described in Lu et al., Appl. Microbiol. […] After being incubated at 30° C. for 1 min (when ABST or SGZ was the substrate) or for 4 hours (when RBBR was the substrate), each of the reaction mixtures was examined with a spectrophotometer to determine its optical density at 420 nm (when ABST was the substrate), at 530 nm (when SGZ was the substrate), or at 585 nm (when RBBR was the substrate). […] Kinetic constants of Lcc35 for digesting ABTS and SGZ were determined based on the initial reaction rates of Lcc35 at various substrate concentrations. The enzymatic reactions were taken place at pH 5 (for ABST) or pH 6 (for SGH) and 70° C.

[4] = tested on: Rigidoporus microporus BCRC 35318 laccase Lcc35, native (wild type), mature form SEQ ID NO:1; assay: Inhibitor effects on Lcc35 laccase activity (ABTS as the substrate); assay type: biochemical, R. microporus BCRC 35318; details: 10 min; for Relative activity (residual laccase activity with inhibitor; None = 100.0): pre-incubated pH 5.0, 30° C.
Description: as §1
Next, the laccase activities of Lcc35 under various pH conditions were determined, following the method described in Lu et al., Appl. Microbiol. Biotechnol., 2007, 74, (6), 1232-1239. 0.01 ml of the Lcc35-containing solution was mixed with (i) 0.49 ml of a 50 mM reaction buffer of glycine-HCl (pH 2.0 to 3.0), sodium acetate (pH 4.0 to 6.0), or sodium phosphate (pH 7.0 to 8.0) and (ii) 0.5 ml of a substrate solution containing 2 mM ABTS, 1 mM [N,N′-bis(3,5-dimethoxy-4-hydroxybenzylidene)hydrazine] (SGZ), or 0.04% RBBR. After being incubated at 30° C. for 1 min (when ABST or SGZ was the substrate) or for 4 hours (when RBBR was the substrate), each of the reaction mixtures was examined with a spectrophotometer to determine its optical density at 420 nm (when ABST was the substrate), at 530 nm (when SGZ was the substrate), or at 585 nm (when RBBR was the substrate). One unit of laccase activity was defined as the amount of Lcc35 that oxidized 1 μmol substrate per min. […]

[5] = Laccase activity under various pH conditions, ABTS substrate; assay type: biochemical; details: 30° C., 1 min
Description: (§2) Next, the laccase activities of Lcc35 under various pH conditions were determined, following the method described in Lu et al., Appl. Microbiol. Biotechnol., 2007, 74, (6), 1232-1239. 0.01 ml of the Lcc35-containing solution was mixed with (i) 0.49 ml of a 50 mM reaction buffer of glycine-HCl (pH 2.0 to 3.0), sodium acetate (pH 4.0 to 6.0), or sodium phosphate (pH 7.0 to 8.0) and (ii) 0.5 ml of a substrate solution containing 2 mM ABTS, 1 mM [N,N′-bis(3,5-dimethoxy-4-hydroxybenzylidene)hydrazine] (SGZ), or 0.04% RBBR. After being incubated at 30° C. for 1 min (when ABST or SGZ was the substrate) or for 4 hours (when RBBR was the substrate), each of the reaction mixtures was examined with a spectrophotometer to determine its optical density at 420 nm (when ABST was the substrate), at 530 nm (when SGZ was the substrate), or at 585 nm (when RBBR was the substrate). One unit of laccase activity was defined as the amount of Lcc35 that oxidized 1 μmol substrate per min.

[6] = Laccase activity under various pH conditions, SGZ substrate; assay type: biochemical; details: 30° C., 1 min
Description: as §2

[7] = Optimal pH with artificial lignin on agar micro-titer plate; assay type: biochemical; details: 0.1% lignin substrate, 30° C., 4 hr
Description: The optimal pH of Lcc35 was also examined using an artificial lignin as a substrate, as follows. Each of the reaction buffers listed above was mixed with 0.1% lignin (Sigma #471003) and the mixture was placed in wells of an agar micro-titter plate. 10 μl of the Lcc35-containing suspension was placed at the center of each well. The agar plate was incubated at 30° C. for 4 hr to allow degradation of the artificial lignin by Lcc35.

[8] = Activity comparison with T. versicolor laccase, ABTS assay; assay type: biochemical
Description: as §2
(§3) The laccase activity of Lcc35 was compared with Trametes versicolor laccase (provided by Fluka Co.), using either ABST or SGZ as the substrate according to the methods described above.

[9] = Laccase activity under various pH conditions, RBBR de-colorization; assay type: biochemical; details: RBBR substrate, 30° C., 4 hours
Description: as §2

[10] = ABTS overlay activity assay on basic-native PAGE gel; assay type: biochemical; details: ABTS reaction buffer 1 mM, pH 3, room temperature
Description: The laccase activity of this 55kDa protein was determined by an [2,2-azinobis(3-ethylbenzathiazoline-6-sulfonic acid)] (ABTS) overlay activity assay. See Lebendiker M BASIC-NATIVE GEL Protocol, wolfson.huji.ac.il/purification/Protocols/PAGE_Basic.html. A basic-native PAGE gel containing the 55 kDa protein was incubated in an ABTS reaction buffer (1 mM, pH 3) at room temperature.

[11] = Enzymatic activity of purified Lcc35; assay type: biochemical; details: isolated as in Example 1; culture with 1 mM 4-hydroxybenzoic acid
Description: as §1
See Cambria et al., Protein Expr. Purif. 2000, 18, (2), 141-147; and Liu et al., Appl. Microbiol. Biotechnol. 2003, 63, (2), 174-181. Following the isolation process described in Example 1 above, purified Lcc35 was obtained with a recovery rate of about 55% and an enzymatic activity of 289.8 U/ml.

[12] = Activity comparison with T. versicolor laccase, SGZ assay; assay type: biochemical; details: SGZ substrate; laccase amount by SDS-PAGE and ImageQuant TL 7.0
Description: as §2, §3

[13] = Thermal stability of Lcc35; assay type: physicochemical; details: pH 6.0, 30-70° C. for 10, 30 or 60 minutes
Description: To determine thermal stability of Lcc35, the enzyme solution was incubated under pH 6.0 at various temperatures (i.e., 30° C., 40° C., 50° C., 60° C., and 70° C.) for 10, 30, or 60 minutes.

[14] = Laccase activity at various temperatures; assay type: biochemical; details: ABTS substrate, sodium acetate buffer pH 5.0, 1 minute, 25-90° C.
Description: The laccase activity of Lcc35 was determined at various temperatures (i.e., ranging from 25-90° C.), using ABST as the substrate. The Lcc35-containing solution was incubated with ABST and a sodium acetate buffer (pH 5.0) for 1 minute and the enzymatic activity was examined afterwards.

[15] = pH stability of Lcc35; assay type: physicochemical; details: incubated at 30° C. for 20 hours, ABTS substrate
Description: The Lcc35 solution was incubated under various pH conditions at 30° C. 20 hours later, the laccase activity in the solution was determined, using ABST as the substrate.

[16] = Isoelectric focusing with PhastGel IEF 3-9; assay type: physicochemical
Description: First, the isoelectric focusing point of Lcc35 was determined with PhastGel IEF 3-9 (GE Healthcare), following the method described in Hackler et al., Anal. Biochem. 1995, 230, (2), 281-289. Briefly, the Lcc35-containing solution mentioned above was loaded on a PhastGel IEF 3-9 gel.

[17] = substrate ABTS, pH 5, 70° C., 420 nm
[18] = substrate SGZ, pH 6, 70° C., 530 nm

O[C@H](CS)[C@H](O)CS (racemic) [DTT, dithiothreitol]
Relative activity (%) of Lcc35 ([1]; compound 0.1 mM): 92.3%
Relative activity (%) of Lcc35 ([1]; compound 1.0 mM): 91.8%

O=C(O)c1ccc(O)cc1 [4-Hydroxybenzoic acid, 4-hydroxybenzoic acid]
Yield of laccase production [2]: 10.5 Unit ml^−1
increase of Lcc35 production ([2]; versus no inducer): 10.5 fold

CCn1c(=NN=c2sc3cc(S(=O)(=O)O)ccc3n2CC)sc2cc(S(=O)(=O)O)ccc21 [ABTS, 2,2-azinobis(3-ethylbenzathiazoline-6-sulfonic acid)]
Kcat [3, 17]: 730 s⁻¹
Km [3, 17]: 53 µM

O=C(O)CN(CCN(CC(=O)O)CC(=O)O)CC(=O)O [EDTA, ethylenediaminetetraacetic acid]
Relative activity (%) of Lcc35 ([1]; compound 10.0 mM): 100.0%
Relative activity (%) of Lcc35 ([1]; compound 25.0 mM): 100.0%

COc1cc(/C=C/C(=O)O)ccc1O [Ferulic acid, ferulic acid]
Yield of laccase production [2]: 2.4 Unit ml^−1

N[C@@H](CS)C(=O)O [L-Cysteine]
Relative activity (%) of Lcc35 ([1]; compound 0.1 mM): 97.2%
Relative activity (%) of Lcc35 ([1]; compound 1.0 mM): 92.7%

[N-]=[N+]=[N-].[Na+] [NaN3]
inhibitory effect on Lcc35 activity (in words) [1]: substantially inhibited
Relative activity (%) of Lcc35 ([1]; compound 0.1 mM): 50.0%
Relative activity (%) of Lcc35 ([1]; compound 1.0 mM): 17.0%
Relative activity (residual laccase activity with inhibitor; None = 100.0) ([4]; 0.1 mM compound): 50.0%
Relative activity (residual laccase activity with inhibitor; None = 100.0) ([4]; 1.0 mM compound): 17.0%
inhibitory effect on Lcc35 (in words) ([4]; concentrations of Table 2, pH 5.0, 30° C.): substantially inhibited

COc1cc(/C=N/N=C/c2cc(OC)c(O)c(OC)c2)cc(OC)c1O [SGZ, N,N′-bis(3,5-dimethoxy-4-hydroxybenzylidene)hydrazine]
Kcat [3, 18]: 750 s⁻¹
Km [3, 18]: 7 µM

COc1ccc(CO)cc1OC [Veratryl alcohol, veratryl alcohol]
Yield of laccase production [2]: 3.4 Unit ml^−1

B1: Lcc35: novel laccase isolated from R. microporus BCRC 35318; mature form SEQ ID NO:1, precursor SEQ ID NO:2 (protein)
chain: SVGPVADIPIVNANLSPDGFTRTTVLAGGTFPGPLIVGNKGDNFKLNVVDQLTDANQLKTTTIHWHGFFQHGTNWADGPAFVNQCPIASGNSFLYDFSAADQAGTFWYHSHLSTQYCDGLRGAFVVYDPSDPNASLYDVDNESTVITLADWYHTLARLGARFPTPDSTLINGLGRFAGGPASDLSVITVESGKRYRFRLVSISCDPNYTFSIDGHDMTIIEVNGINHDALSVDSIQIFAGQRYSFVLNANQAVGNYWIRANPNIGTRGFSGGINSAILRYVGADAVEPTTSQGTSTKPLVETNLHPSQNPGAVGSPTPGGVDLALNLALGFAGGSFTINGATFTSPTVPVLLQILSGAQSATDLLPSGSVFTLPGDSTIEISMPAGVAGGPHPFHLHGHAFDVVRASGSSTYNYANPVRRDVVSLGAAGDNVTIRFKTDNPGPWFLHCHIDWHLEAGLAIVFAEDTPNTAAINPVPQAWSDLCPIYNALAESDH
modifications: RIGIDOPORUS MICROPORUS
pH of highest laccase activity [5]: 3-5
pH of highest laccase activity [6]: 5-6
pH of highest laccase activity [7]: 5-6
laccase-specific activity relative to T. versicolor laccase ([8]; ABTS or SGZ as the substrate): 2-3 fold
ABTS assay, laccase-specific activity ([8]; ABTS substrate, laccase amount by SDS-PAGE and ImageQuant TL 7.0): 3800 U mg^−1
pH of highest laccase activity [9]: 5-6
laccase activity (color change around the 55 kDa band) [10]: high laccase activity
enzymatic activity of purified Lcc35 [11]: 289.8 U/ml
SGZ assay, laccase-specific activity [12]: 1700 U mg^−1
temperature below which Lcc35 was stable [13]: below 50 °C
temperature of highest laccase activity [14]: 70 °C
pH at which Lcc35 was more stable [15]: 6
pI value [16]: 3.98
